Test results from ChEMBL document CHEMBL1148796 (J Med Chem, 2007).

Columns and labels:
[1] = biological target: Human immunodeficiency virus type 1 reverse transcriptase (Human immunodeficiency virus 1) (UniProt Q72547)
Description: Inhibition of wild type HIV1 RT

[2] = tested on: Human immunodeficiency virus 1; experiment: Antiviral activity against HIV1 RT AB1 mutant in lymphocytes assessed as reduction of p24 antigen production; format: functional; details: read-out: ED50 (the source's name)
[3] = tested on: Human immunodeficiency virus type 1 reverse transcriptase (Human immunodeficiency virus 1), Q72547 [K103N]
Description: Inhibition of HIV1 RT K103N mutant

[4] = tested on: Human immunodeficiency virus 1; experiment: Antiviral activity against wild type HIV1 3B in lymphocytes assessed as reduction of p24 antigen production; format: functional; details: Human immunodeficiency virus 1, 3B; read-out: ED50 (the source's name)
[5] = tested on: Human immunodeficiency virus 1; experiment: Antiviral activity against HIV1 RT 112 mutant in lymphocytes assessed as reduction of p24 antigen production; format: functional; details: read-out: ED50 (the source's name)
[6] = Cytotoxicity against lymphocytes; format: cell-based, Lymphocyte; details: human, read-out: TC50 (the source's name)
[7] = tested on: Human immunodeficiency virus 1; experiment: Antiviral activity against HIV1 RT K103N-Y181C mutant in MT4 cells by MTT assay; format: functional; details: Human immunodeficiency virus 1, MT4; read-out: ED50 (the source's name)
[8] = tested on: Human immunodeficiency virus 1; experiment: Antiviral activity against HIV1 3B in MT4 cells by MTT assay; format: functional; details: Human immunodeficiency virus 1, 3B, read-out: ED50 (the source's name)
[9] = tested on: Human immunodeficiency virus 1; experiment: Antiviral activity against HIV1 RT Y181C mutant in MT4 cells by MTT assay; format: functional; details: Human immunodeficiency virus 1, MT4; read-out: ED50 (the source's name)
[10] = tested on: Human immunodeficiency virus type 1 reverse transcriptase (Human immunodeficiency virus 1), Q72547 [Y181I]
[11] = tested on: Human immunodeficiency virus type 1 reverse transcriptase (Human immunodeficiency virus 1), Q72547 [L100I]
Description: Inhibition of HIV1 RT L100I mutant

[12] = Selectivity index, ratio of TC50 for lymphocytes to ED50 for HIV1 3B; format: functional, Homo sapiens
[13] = Cytotoxicity against macrophages; format: cell-based, Macrophage; details: human, read-out: TC50 (the source's name)
[14] = tested on: Human immunodeficiency virus 1; experiment: Antiretroviral activity against HIV1 3BBa-L in macrophages assessed as reduction of p24 antigen production; format: functional; details: Human immunodeficiency virus 1, 3BBa-L; read-out: ED50 (the source's name)
[15] = Selectivity index, ratio of TC50 for lymphocytes to ED50 for HIV1 RT AB1 mutant; format: functional
[16] = Cytotoxicity against MT4 cells by MTT assay; format: cell-based; details: human, read-out: TC50 (the source's name)
[17] = Cytotoxicity against mock-infected C8166 cells by MTT assay; format: cell-based; details: human, read-out: TC50 (the source's name)
[18] = Selectivity index, ratio of TC50 for lymphocytes to ED50 for HIV1 RT 112 mutant; format: functional
[19] = Selectivity index, ratio of TC50 for MT4 cells to ED50 for HIV1; format: functional
[20] = Selectivity index, ratio of TC50 for macrophages to ED50 for HIV1 3BBa-L; format: functional
[21] = tested on: Human immunodeficiency virus 1; experiment: Antiretroviral activity against HIV1 wild type in C8166 cells by MTT assay; format: functional; details: Human immunodeficiency virus 1, C8166; read-out: ED50 (the source's name)
[22] = tested on: Human immunodeficiency virus 1; experiment: Antiretroviral activity against wild type HIV1 in MT4 cells by MTT assay; format: functional; details: Human immunodeficiency virus 1, MT4; read-out: ED50 (the source's name)
[23] = Selectivity index, ratio of TC50 for C8166 cells to ED50 for HIV1; format: functional

| Structure (SMILES) | EC50 [7] | EC50 [8] | EC50 [9] | CC50 [16] | CC50 [17] | Selectivity index [19] | EC50 [21] | EC50 [22] | Selectivity index [23] | also measured |
| --- | --- | --- | --- | --- | --- | --- | --- | --- | --- | --- |
| Cc1ccnc2c1NC(=O)c1cccnc1N2C1CC1 [NEVIRAPINE] | > 20000 nM | 50 nM | 14000 nM |  |  |  |  |  |  | ID50 [1]: 400 nM; EC50 [2]: > 20000 nM; ID50 [3]: 7000 nM; EC50 [4]: 90 nM; EC50 [5]: > 20000 nM; CC50 [6]: > 20000 nM; ID50 [10]: > 20000 nM; ID50 [11]: 9000 nM; Selectivity index [12]: >222 |
| Cc1cc(C)cc(S(=O)(=O)c2c(C(N)=O)[nH]c3ccc(F)c(F)c23)c1 | 1200 nM | 1 nM | 50 nM | > 20000 nM | > 20000 nM | >20000 | 3 nM | 1 nM | >6667 | ID50 [1]: 1.7 nM; CC50 [13]: > 20000 nM; EC50 [2]: 84 nM; ID50 [3]: 1000 nM; EC50 [4]: 20 nM; EC50 [5]: 130 nM; CC50 [6]: > 20000 nM; EC50 [14]: 23 nM; Selectivity index [15]: >238; Selectivity index [18]: >154; ID50 [10]: 2050 nM; Selectivity index [20]: >870; ID50 [11]: 90 nM; Selectivity index [12]: >1000 |
| Cc1cc(C)cc(S(=O)(=O)c2c(C(N)=O)[nH]c3ccc(F)c(Cl)c23)c1 | > 20000 nM | 8 nM | 2200 nM | > 20000 nM | > 20000 nM | >2500 | 9 nM | 8 nM | >2222 |  |
| Cc1cc(C)cc(S(=O)(=O)c2c(C(N)=O)[nH]c3cc(F)c(F)cc23)c1 | > 20000 nM | 20 nM | 400 nM | > 20000 nM | > 20000 nM | >1000 | 30 nM | 20 nM | >667 |  |
| Cc1cc(C)cc(S(=O)(=O)c2c(C(N)=O)[nH]c3ccc(Cl)c(F)c23)c1 | 300 nM | 0.5 nM | 4 nM | > 20000 nM | > 20000 nM | >40000 | 0.8 nM | 0.5 nM | >25000 | ID50 [1]: 3 nM; CC50 [13]: > 20000 nM; EC50 [2]: 12 nM; ID50 [3]: 6 nM; EC50 [4]: 8 nM; EC50 [5]: 10 nM; CC50 [6]: > 20000 nM; EC50 [14]: 10 nM; Selectivity index [15]: >1667; Selectivity index [18]: >2000; ID50 [10]: 29 nM; Selectivity index [20]: >2000; ID50 [11]: 2 nM; Selectivity index [12]: >2500 |
| Cc1cc(C)cc(S(=O)(=O)c2c(C(N)=O)[nH]c3c(Cl)cc(Cl)cc23)c1 | > 20000 nM | 21 nM | 4200 nM | > 20000 nM | > 20000 nM | >952 | 12 nM | 21 nM | >1667 |  |
| NC(=O)c1[nH]c2cc(Cl)c(Cl)cc2c1S(=O)(=O)c1ccccc1 | > 20000 nM | 80 nM | 1700 nM | > 20000 nM | > 20000 nM | >250 | 100 nM | 80 nM | >200 |  |
| Cc1cc(C)cc(S(=O)(=O)c2c(C(N)=O)[nH]c3c(F)cc(F)cc23)c1 | > 20000 nM | 7 nM | 1500 nM | > 20000 nM | > 20000 nM | >2857 | 25 nM | 7 nM | >800 |  |
| Cc1cc(C)cc(S(=O)(=O)c2c(C(N)=O)[nH]c3cc(F)c(Cl)cc23)c1 | > 20000 nM | 12 nM | 50 nM | > 20000 nM | > 20000 nM | >1667 | 10 nM | 12 nM | >2000 |  |
| NC(=O)c1[nH]c2cc(F)c(F)cc2c1S(=O)(=O)c1ccccc1 | > 20000 nM | 16 nM | 8200 nM | > 20000 nM | > 20000 nM | >1250 | 20 nM | 16 nM | >1000 |  |
| Cc1cc(C)cc(S(=O)(=O)c2c(C(N)=O)[nH]c3cc(Cl)c(Cl)cc23)c1 | > 20000 nM | 10 nM | 1000 nM | > 20000 nM | > 20000 nM | >2000 | 15 nM | 10 nM | >1333 |  |
| Cc1cc(C)cc(S(=O)(=O)c2c(C(N)=O)[nH]c3cc(Cl)c(F)cc23)c1 | 12000 nM | 50 nM | 700 nM | 18000 nM | > 20000 nM | 360 | 50 nM | 50 nM | >400 |  |
| O=C1Nc2ccc(Cl)cc2[C@@](C#CC2CC2)(C(F)(F)F)O1 [EFAVIRENZ] | 200 nM |  | 10 nM |  |  |  |  |  |  | EC50 [2]: > 20000 nM; EC50 [4]: 7 nM; EC50 [5]: > 20000 nM; CC50 [6]: > 20000 nM |
| NC(=O)c1[nH]c2ccc(F)c(F)c2c1S(=O)(=O)c1ccccc1 | 18000 nM | 8 nM | 600 nM | > 20000 nM | > 20000 nM | >2500 | 10 nM | 8 nM | >2000 |  |
